In publication PMC4631180 (British Journal of Clinical Pharmacology, 2015):
“Also recorded” adds a separate entry of the source. Structures can show the parent of a compound that is named as a salt. Where two headings read alike, the source gives them in different places. Marks after values point to notes of the source that are not given here.

Key:
[1] = type: in vivo, human; details: for Total AUC: extrapolated to infinity; for half-life: both, human, plasma, oral, t½; for Cmax ratio (Day2) / (Day1), arithmetic mean / Cmax ratio (Day2) / (Day1), geometric mean / Cmax ratio (Day6) / (Day1), arithmetic mean / Cmax ratio (Day6) / (Day1), geometric mean / Total AUC ratio (Day2) / (Day1), arithmetic mean / Total AUC ratio (Day2) / (Day1), geometric mean / Total AUC ratio (Day6) / (Day1), arithmetic mean / Total AUC ratio (Day6) / (Day1), geometric mean / Truncated AUC ratio (Day2) / (Day1), arithmetic mean / Truncated AUC ratio (Day2) / (Day1), geometric mean / Truncated AUC ratio (Day6) / (Day1), arithmetic mean / Truncated AUC ratio (Day6) / (Day1), geometric mean: favipiravir co-administration vs control; for Truncated AUC: 0–12 h
[2] = type: in vivo, human
[3] = tested on: acetaminophen sulfate formation (sulfation); assay: Inhibition of acetaminophen sulfate formation in pooled human hepatic S9; type: in vitro ADME; details: both, pooled human hepatic S9, probe acetaminophen (2 mM)
[4] = tested on: acetaminophen glucuronide formation (pooled human hepatic S9); assay: Inhibition of acetaminophen glucuronide formation in pooled human hepatic S9; type: in vitro ADME; details: pooled human hepatic S9, acetaminophen 2 mM; favipiravir up to 3000 µM, T-705M1 3–300 µM
[5] = Day 2, + acute favipiravir, mean (± SE), n = 28
[6] = Day 6, + extended favipiravir, mean (± SE), n = 28
[7] = 650 mg, Day 1, acetaminophen alone (control), mean (± SE), n = 28
[8] = Day 1, acetaminophen alone (control), mean (± SE), n = 28

Total AUC [1, 5] | Total AUC [1, 6] | half-life [1, 7] | half-life [1, 5] | Cmax ratio (Day2) / (Day1), arithmetic mean [1] | Cmax ratio (Day2) / (Day1), geometric mean [1] | Cmax ratio (Day6) / (Day1), arithmetic mean [1] | Cmax ratio (Day6) / (Day1), geometric mean [1] | Total AUC ratio (Day2) / (Day1), arithmetic mean [1] | Total AUC ratio (Day2) / (Day1), geometric mean [1] | Total AUC ratio (Day6) / (Day1), arithmetic mean [1] | Total AUC ratio (Day6) / (Day1), geometric mean [1] | Truncated AUC ratio (Day2) / (Day1), arithmetic mean [1] | Truncated AUC ratio (Day2) / (Day1), geometric mean [1] | Truncated AUC ratio (Day6) / (Day1), arithmetic mean [1] | Truncated AUC ratio (Day6) / (Day1), geometric mean [1] | Compound | Inhibition of acetaminophen glucuronide formation [4] | further results
99.3 (± 5.1) µg ml^–1 h | 109.0 (± 7.1) µg ml^–1 h | 198 min | 210 min | 1.19* | 1.18 | 1.26* | 1.22 | 1.23* | 1.22 | 1.35* | 1.32 | 1.23* | 1.21 | 1.34* | 1.31 | CC(=O)Nc1ccc(O[C@@H]2O[C@H](C(=O)O)[C@@H](O)[C@H](O)[C@H]2O)cc1 [Acetaminophen glucuronide] | – | –
21.2 (± 2.1) µg ml^–1 h | 20.1 (± 2.3) µg ml^–1 h | – | – | 0.52* | 0.51 | 0.52* | 0.47 | 0.84* | 0.8 | 0.81 | 0.72 | 0.71* | 0.7 | 0.65* | 0.6 | CC(=O)Nc1ccc(OS(=O)(=O)O)cc1 [Acetaminophen sulfate] | – | Cmax ([1]; Day 1, acetaminophen 650 mg oral alone (control), mean (± SE), n = 28): 4.8 (± 0.4) µg ml^–1; tmax ([1]; Day 1, acetaminophen 650 mg oral alone (control), n = 28): 1.00 (± 0.33) h; Truncated AUC [1, 8]: 22.4 (± 1.7) µg ml^–1 h; t½ [1, 8]: 3.4 (± 0.1) h; Truncated AUC [1, 5]: 16.0 (± 1.3) µg ml^–1 h; t½ [1, 5]: 5.5 (± 0.6) h; tmax ([1]; Day 2, acetaminophen 650 mg oral + acute favipiravir, n = 28): 1.51 (± 0.1) h; Truncated AUC [1, 6]: 14.6 (± 1.6) µg ml^–1 h; t½ [1, 6]: 5.3 (± 0.4) h; tmax ([1]; Day 6, acetaminophen 650 mg oral + extended favipiravir, n = 28): 1.27 (± 0.09) h; Projected total urinary excretion ([2]; Day 1, acetaminophen 650 mg alone (control), mean (± SE), n = 28): 22 (± 2) % of dose
39.3 (± 3.1) µg ml^–1 h | 37.4 (± 2.5) µg ml^–1 h | 168 min | 180 min | 1.07 | 1.03 | 1.17 | 1.08 | 1.20* | 1.17 | 1.19* | 1.14 | 1.19* | 1.17 | 1.19* | 1.14 | CC(=O)Nc1ccc(O)cc1 [Acetaminophen, reference compound] | – | Effect of favipiravir co-administration on Cmax ([1]; acute (day 2) and extended (day 6) favipiravir vs day 1): not significantly changed; also recorded: no significant effect; Dose excreted in urine as intact acetaminophen ([2]; on average): less than 10 % of the dose
– | – | – | – | – | – | – | – | – | – | – | – | – | – | – | – | NC(=O)c1nc(F)c[nH]c1=O [Favipiravir, reference compound] | did not inhibit | IC50 at 15 min [3]: 150 µM
– | – | – | – | – | – | – | – | – | – | – | – | – | – | – | – | NC(=O)c1nc(F)c(=O)[nH]c1O [T‐705M1] | did not inhibit; also recorded: no effect | –
